Experimental findings from patent US20120010241A1, “HSP90 INHIBITING INDAZOLE DERIVATIVES, COMPOSITIONS CONTAINING SAME AND USE THEREOF” (SANOFI, priority 2009, published 2012) are described below.

The term IC50 denotes the concentration that inhibits the measured activity by half. Low readings indicate greater potency, high ones weaker potency.

Experiment [1] has as its system Her2 expression in SKBr3 cells. Briefly: phenotypic SKBr3/HER2 cell test (Her2 expression at the cell surface, flow cytometry). Format: cell-based. The conditions noted are these: Homo sapiens, SK-BR-3, incubation for 24 h, anti-Her2 antibody coupled to PE, FACS. On the procedure: The cellular activity of the compounds can in particular be evaluated by means of the phenotypic “SKBr3/HER2” cell test described below:
The SKBr3 […] adenocarcinoma cells, overexpressing the Her2 tyrosine kinase receptor, originate from the ATCC (HTB-30) and are cultured in McCoy's 5A medium supplemented with 10% FBS and 1% L-glutamine.
The cells are seeded in 12-well plates at a proportion of 125 000 cells per well in 1 ml of complete medium. The following day, the products are added at varying concentrations. After incubation for 24 h, the cells are trypsinized, washed with PBS and incubated with 100 ng of anti-Her2 antibody coupled to PE (phycoerythrin) (BD 340552) for 30 minutes at 4° C. in the dark. The fluorescence due to the expression of the Her2 receptor at the surface of the cells is then read using a FACS Calibur flow cytometer (Becton-Dickinson). The percentage inhibition of Her2 expression as a function of the concentrations of product tested is fitted by the nonlinear regression technique (XLfit, equation 205) in order to measure the IC50 for each product.

The target of another experiment is Hsp82 (Saccharomyces cerevisiae, UniProt P02829). Briefly: Hsp82/ATPase test (PK/LDH coupled spectrophotometric method; malachite green method also described). The conditions noted are these: 1 μM Hsp82, 250 μM ATP, 37° C., absorbance at 340 nm. Format: biochemical. On the procedure: The biochemical activity of the compounds can in particular be evaluated by means of the “Hsp82/ATPase” test described below:
The inorganic phosphate released during the hydrolysis of ATP by the ATPase activity of Hsp82 is quantified by the malachite green method. In the presence of this reagent, formation of the inorganic phosphate-molybdate-malachite green complex, which absorbs at a wavelength of 620 nm, occurs.
The products to be evaluated are incubated in a reaction volume of 30 μl, in the presence of 1 μM Hsp82 and of 250 μM of substrate (ATP) in a buffer composed of 50 mM Hepes-NaOH (pH 7.5), 1 mM DTT, 5 mM MgCl2 and 50 mM KCl at 37° C. for 60 min. In parallel, an inorganic phosphate range of between 1 and 40 μM is made up in the same buffer. […] The inorganic phosphate concentration of each sample is then calculated from the standard curve. The ATPase activity of Hsp82 is expressed as concentration of inorganic phosphate produced in 60 minutes. The effect of the various products tested is expressed as percentage inhibition of the ATPase activity.
The formation of ADP due to the ATPase activity of Hsp82 was used to develop another method for evaluating the enzyme activity of this enzyme by application of an enzymatic coupling system involving pyruvate kinase (PK) and lactate dehydrogenase (LDH). In this kinetic-type spectrophotometric method, PK catalyses the formation of ATP and of pyruvate from phosphoenol pyruvate (PEP) and the ADP produced by Hsp82. The pyruvate formed, which is a substrate for LDH, is subsequently converted to lactate in the presence of NADH. In this case, the decrease in the NADH concentration, measured through the decrease in absorbance at the wavelength of 340 nm, is proportional to the concentration of ADP produced by Hsp82.
The products tested are incubated in a reaction volume of 100 μl of buffer composed of 100 mM Hepes-NaOH (pH 7.5), 5 mM MgCl2, 1 mM DTT, 150 mM KCl, 0.3 mM NADH, 2.5 mM PEP and 250 μM ATP. This mixture is preincubated at 37° C. for 30 minutes before the addition of 3.77 units of LDH and 3.77 units of PK. The reaction is initiated by addition of the product to be evaluated, in varying concentrations, and of Hsp82, at the concentration of 1 μM. The enzymatic activity of Hsp82 is then measured continuously, in a microplate reader, at 37° C., at the wavelength of 340 nm. The initial rate of the reaction is obtained by measuring the slope of the tangent to the origin of the curve recorded. The enzymatic activity is expressed in μM of ADP formed per minute. The effect of the various products tested is expressed as 50% inhibitory concentration (1050) with respect to the ATPase activity, according to the codification below: […]

Sequence of Hsp82 (P02829 whole entry): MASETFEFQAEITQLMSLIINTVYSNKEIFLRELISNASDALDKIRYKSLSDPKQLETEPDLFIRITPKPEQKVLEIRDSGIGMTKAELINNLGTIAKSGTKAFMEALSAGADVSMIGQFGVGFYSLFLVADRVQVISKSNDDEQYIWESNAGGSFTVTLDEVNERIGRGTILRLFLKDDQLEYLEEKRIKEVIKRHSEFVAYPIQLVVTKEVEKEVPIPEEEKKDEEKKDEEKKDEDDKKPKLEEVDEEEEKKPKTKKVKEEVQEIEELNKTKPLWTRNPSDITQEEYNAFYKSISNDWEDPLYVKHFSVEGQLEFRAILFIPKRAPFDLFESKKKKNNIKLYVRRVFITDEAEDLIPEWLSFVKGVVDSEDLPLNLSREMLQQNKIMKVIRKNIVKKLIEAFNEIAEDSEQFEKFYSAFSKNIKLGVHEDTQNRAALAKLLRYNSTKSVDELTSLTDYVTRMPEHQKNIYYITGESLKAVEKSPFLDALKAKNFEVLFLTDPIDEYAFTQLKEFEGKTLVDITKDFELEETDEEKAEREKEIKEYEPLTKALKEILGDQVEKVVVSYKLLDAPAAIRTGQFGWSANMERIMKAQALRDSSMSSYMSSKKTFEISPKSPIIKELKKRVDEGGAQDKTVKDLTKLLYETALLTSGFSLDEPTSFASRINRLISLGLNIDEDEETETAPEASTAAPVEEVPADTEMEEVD

In turn, `Cc1nn(-c2ccc(C(N)=O)c(NC[C@@H]3C[C@@H]4CC[C@H]3O4)c2)c2cccc(-c3cnc4ccccc4c3)c12` (single isomer, unassigned) [Example 20, 4-(3-methyl-4-quinolin-3-ylindazol-1-yl)-2-{[endo-1-(7-oxabicyclo[2.2.1]hept-2-yl)methyl]amino}benzamide] displayed an IC50 in experiment [1] of under 1000 nM.
For `NC(=O)c1ccc(-n2ncc3c(-c4cnc5ccccc5c4)cccc32)cc1` [Example 25, 4-(4-quinolin-3-ylindazol-1-yl)benzamide], in experiment [1], the IC50 was in the range of 10000 to 100000 nM.
The same measure, in the same setting: with `NC(=O)c1ccc(-n2nc(C(F)(F)F)c3c(-c4nc5ccc(F)cc5[nH]4)cccc32)cc1N[C@H]1CC[C@H](O)CC1` [Example 22, 4-[4-(6-fluoro-1H-benzimidazol-2-yl)-3-trifluoromethylindazol-1-yl]-2-(trans-4-hydroxycyclohexylamino)benzamide] the figure was 1000 to 10000 nM.
In the case of `Cc1nn(-c2ccc(C(N)=O)c(NC3CCOCC3)c2)c2cccc(-c3cnc4ccccc4c3)c12` [Example 7, 4-(3-methyl-4-quinolin-3-ylindazol-1-yl)-2-(tetrahydropyran-4-ylamino)benzamide], the IC50 (in experiment [1]; at Hsp82) was under 1000 nM throughout.
For the molecule `CC(C)(O)CNc1cc(-n2nc(Br)c3c(-c4cnc5ccccc5c4)cccc32)cnc1C(N)=O` [Example 27, 5-(3-bromo-4-quinolin-3-ylindazol-1-yl)-3-(2-hydroxy-2-methylpropylamino)pyridine-2-carboxamide], the IC50 in experiment [1] is under 1000 nM.
Turning to `Cc1nn(-c2ccc(C(N)=O)c(NC3CC(C)(C)N(C)C(C)(C)C3)c2)c2cccc(-c3cnc4ccccc4c3)c12` [Example 15, 4-(3-methyl-4-quinolin-3-ylindazol-1-yl)-2-(1,2,2,6,6-pentamethylpiperidin-4-ylamino)benzamide], the IC50 in experiment [1] was under 1000 nM; on Hsp82, 1000 to 10000 nM.
On to `Cc1nn(-c2ccc(C(N)=O)c(NCC(C)(C)O)c2)c2cccc(-c3cnc4ccccc4c3)c12` [Example 5, 2-(2-hydroxy-2-methylpropylamino)-4-(3-methyl-4-quinolin-3-ylindazol-1-yl)benzamide], for which the IC50 (in experiment [1]; against Hsp82) was under 1000 nM each time.
With `Cc1nn(-c2ccc(C(N)=O)c(NCCCO)c2)c2cccc(-c3cnc4ccccc4c3)c12` [Example 3, 2-(3-hydroxypropylamino)-4-(3-methyl-4-quinolin-3-ylindazol-1-yl)benzamide], the IC50 (in experiment [1]; against Hsp82) was under 1000 nM each time.
With `Cc1nn(-c2ccc(C(N)=O)c(NC[C@H]3C[C@@H]4CC[C@H]3O4)c2)c2cccc(-c3cnc4ccccc4c3)c12` (single isomer, unassigned) [Example 19, 4-(3-methyl-4-quinolin-3-ylindazol-1-yl)-2-{[exo-1-(7-oxabicyclo[2.2.1]hept-2-yl)methyl]amino}benzamide], the IC50 in experiment [1] is under 1000 nM.
On the same count and under the same terms, next, `NC(=O)c1ncc(-n2nc(Cl)c3c(-c4cnc5ccccc5c4)cccc32)cc1N[C@H]1CC[C@H](O)CC1` [Example 26, 5-(3-chloro-4-quinolin-3-ylindazol-1-yl)-3-(trans-4-hydroxycyclohexylamino)pyridine-2-carboxamide]: under 1000 nM.
Take `Cc1nn(-c2cnc(C(N)=O)c(NCCc3ccccn3)c2)c2cccc(-c3cnc4ccccc4c3)c12` [Example 18, 5-[3-methyl-4-quinolin-3-ylindazol-1-yl]-3-[2-pyridin-2-ylethylamino]pyridine-2-carboxamide]: the values for the IC50 (in experiment [1]; at Hsp82) were 1000 to 10000 nM and under 1000 nM, respectively.
Regarding `Cc1nn(-c2cnc(C(N)=O)c(NC3CCOCC3)c2)c2cccc(-c3cnc4ccccc4c3)c12` [Example 10, 5-(3-methyl-4-quinolin-3-ylindazol-1-yl)-3-(tetrahydro-pyran-4-ylamino)pyridine-2-carboxamide], the IC50 (in experiment [1]; against Hsp82) was under 1000 nM each time.
Regarding `Cc1nn(-c2ccc(C(N)=O)c(NC3CC(C)(C)NC(C)(C)C3)c2)c2cccc(-c3cnc4ccccc4c3)c12` [Example 6, 4-(3-methyl-4-quinolin-3-ylindazol-1-yl)-2-(2,2,6,6-tetramethylpiperidin-4-ylamino)benzamide], the IC50 (in experiment [1]; on Hsp82) was under 1000 nM in each case.
Turning to `Cc1nn(-c2ccc(C(N)=O)c(N[C@H]3CC[C@H](OC(=O)CN)CC3)c2)c2cccc(-c3cnc4ccccc4c3)c12` [Example 11, aminoacetic acid trans-4-[2-carbamoyl-5-(3-methyl-4-quinolin-3-ylindazol-1-yl)phenylamino]cyclohexyl ester], the IC50 (in experiment [1]; at Hsp82) was under 1000 nM each time.
For `Cc1nn(-c2ccc(C(N)=O)c(NCCF)c2)c2cccc(-c3cnc4ccccc4c3)c12` [Example 8, 2-(2-fluoroethylamino)-4-(3-methyl-4-quinolin-3-ylindazol-1-yl)benzamide], in experiment [1], the IC50 is under 1000 nM.
As to `Cc1nn(-c2ccc(C(N)=O)c(NCCC3(O)CCN(C)CC3)c2)c2cccc(-c3cnc4ccccc4c3)c12` [Example 4, 2-[2-(4-hydroxy-1-methylpiperidin-4-yl)ethylamino]-4-(3-methyl-4-quinolin-3-ylindazol-1-yl)benzamide], the IC50 in experiment [1] was under 1000 nM.
Turning to `Cc1nn(-c2ccc(C(N)=O)cc2)c2cccc(-c3cnc4ccccc4c3)c12` [Example 2, 4-(3-methyl-4-quinolin-3-ylindazol-1-yl)benzamide], the IC50 in experiment [1] lay within 10000 to 100000 nM; on Hsp82, 1000 to 10000 nM.
For `NC(=O)c1ccc(-n2nc(C(F)(F)F)c3c(-c4cnc5ccccc5c4)cccc32)cc1N[C@H]1CC[C@H](O)CC1` [Example 21, 2-(trans-4-hydroxycyclohexylamino)-4-(4-quinolin-3-trifluoromethylindazol-1-yl)benzamide], the IC50 in experiment [1] was under 1000 nM.
`Cc1nn(-c2cnc(C(N)=O)c(NC3CC(C)(C)N(C)C(C)(C)C3)c2)c2cccc(-c3cnc4ccccc4c3)c12` [Example 17] showed an IC50 in experiment [1] of under 1000 nM.
In experiment [1], `Cc1nn(-c2cnc(C(N)=O)c(NCC(C)(C)O)c2)c2cccc(-c3cnc4ccccc4c3)c12` [Example 9, 3-(2-hydroxy-2-methylpropylamino)-5-(3-methyl-4-quinolin-3-ylindazol-1-yl)pyridine-2-carboxamide] showed an IC50 of under 1000 nM.
Regarding `NC(=O)c1ncc(-n2nc(C(F)(F)F)c3c(-c4cnc5ccccc5c4)cccc32)cc1N[C@H]1CC[C@H](O)CC1` [Example 23, 3-(trans-4-hydroxycyclohexylamino)-5-(4-quinolin-3-yl-3-trifluoromethylindazol-1-yl)pyridine-2-carboxamide], in experiment [1], the IC50 is under 1000 nM.
`Cc1nn(-c2cnc(C(N)=O)c(N[C@H]3CC[C@H](O)CC3)c2)c2cccc(-c3cnc4ccccc4c3)c12` [Example 16, 3-(trans-4-hydroxycyclohexylamino)-5-(3-methyl-4-quinolin-3-ylindazol-1-yl)pyridine-2-carboxamide] had an IC50 in experiment [1] of under 1000 nM.
For the molecule `Cc1nn(-c2ccc(C(N)=O)c(NCC(C)(C)O)c2)c2cccc(-c3nc4ccc(F)cc4[nH]3)c12` [Example 13, 4-[4-(6-fluoro-1H-benzimidazol-2-yl)-3-methylindazol-1-yl]-2-(2-hydroxy-2-methylpropylamino)benzamide], the IC50 in experiment [1] was under 1000 nM.
Molecule `NC(=O)c1ccc(-n2ncc3c(-c4cnc5ccccc5c4)cccc32)cc1N[C@H]1CC[C@H](O)CC1` [Example 24, 2-(trans-4-hydroxycyclohexylamino)-4-(4-quinolin-3-ylindazol-1-yl)benzamide] displayed an IC50 in experiment [1] of under 1000 nM.
